Results from article PMC7520419 (The AAPS Journal, 2020).
Values after ≈ are worked out from the molar mass of the structure shown. Counter-ions that a name gives are not always drawn. Like-named read-outs stand apart in the source and are kept apart here. Each block holds one compound with its values, some of them ahead of it.

Legend:
[1] = BCS classification; assay type: physicochemical
[2] = cited from earlier work; for Solubility at pH 6.5: not generated within this working group, ref Table I
[3] = set-up: method as in Table I reference column; conditions: not generated within this working group; ref Table I; cited from earlier work
[4] = Effective human jejunum permeability (Peff,man) used in the PBPK model; assay type: in vitro ADME
Description: Permeation rates of the compounds, including reference compounds, were measured in the apical-to-basolateral (AB) direction. The donor and receiver wells were sampled immediately after application of the compound to the donor well to determine baseline concentrations, and again after 1 h. Quantification was done using high-performance liquid chromatography combined with mass spectrometry (HPLC-MS/MS) analysis and monolayer integrity was verified by analyzing the receiver samples for LuY fluorescence in a plate reader.

[5] = pKa
[6] = set-up: Food Effect (graded symbols): key to the marks not given beside the values; conditions: cited from earlier work
[7] = test system: Caco-2; conditions: cited from earlier work
[8] = PBPK food effect modeling (Simcyp V17.1 and/or GastroPlus V9.5; Model 1 / Model 2); set-up: species or system human
[9] = Solubility measurement in biorelevant media (FaSSIF-V2, FeSSIF-V2); conditions: for solubility: 37 °C, thermodynamic from solid
Description: (§1) The solubility of the drug substances was determined in biorelevant media as well as in aqueous buffers at different pH. Fasted state simulated gastric fluid (FaSSGF) ([37]), fasted state simulated intestinal fluid (FaSSIF-V2) ([38]), and fed state simulated intestinal fluid (FeSSIF-V2) ([39]) were prepared according to the instructions provided by Biorelevant (Biorelevant.com Ltd., London, UK). […] For neutral compounds, solubility was determined at pH 2, pH 4, and pH 7.
(§2) For freely soluble compounds, the extent of solubilization was measured only up to 10 mg/mL.

[10] = Solubility measurement in aqueous buffer solutions; conditions: for solubility: pH 6.5, aqueous buffer, thermodynamic from solid
Description: as §1, §2

[11] = physchem; conditions: pH 6.5, aqueous buffer, thermodynamic from solid
Description: as §1, §2

[12] = physchem; conditions: 37 °C, thermodynamic from solid
Description: as §1, §2

[13] = Model 2, fasted, ref published clinical data (Table I)
[14] = Model 2, fed, ref published clinical data (Table I)
[15] = micronized formulation, healthy volunteers, high-fat breakfast
[16] = not generated within this working group, ref Table I
[17] = Model 1, fasted, ref published clinical data (Table I)
[18] = Model 1, fed, ref published clinical data (Table I)
[19] = Model 1, ref published clinical data (Table I)
[20] = clinically observed PK change (AUC, Cmax) fed vs fasted, compiled by literature search
[21] = direction, AUC and/or Cmax ratio fed to fasted, BE criteria 0.8–1.25, ref drug label
[22] = FaSSIF-V2 (fasted state simulated intestinal fluid), FaSSIF solubility
[23] = FeSSIF-V2 (fed state simulated intestinal fluid), FeSSIF solubility
[24] = Model 2, ref published clinical data (Table I)

Compound: C[C@@H](O[C@H]1OCCN(Cc2n[nH]c(=O)[nH]2)[C@H]1c1ccc(F)cc1)c1cc(C(F)(F)F)cc(C(F)(F)F)c1 [Aprepitant]
BCS [1]: II/IV
Solubility at pH 6.5 [2]: 0.7 μg/ml
solubility in US Pharmacopeia Simulated Intestinal Fluids (SIFsp) ([2]; pH 6.8): 0.7 µg/mL (≈ 1.31 µM)
solubility in water ([2]; pH 8.0, thermodynamically stable form): 7 µg/mL (≈ 13.1 µM)
FaSSIF solubility [3]: 5.4 µg/mL
FeSSIF solubility [3]: 92.4 µg/mL
Effective permeability ([4]; human, 1 h): 240 ×10⁻⁶ cm/s
pKa ([5]; pKa (a, acidic)): 9.15
pKa ([5]; pKa (b, basic)): 2.45
AUC observed, fasted ([6]; 100 mg micronized): 8.571 µg·h/mL
AUC observed, fed ([6]; 100 mg micronized): 24,057 ng.h/ml
Cmax observed, fasted ([6]; 100 mg micronized): 496 ng/mL
Cmax observed, fed ([6]; 100 mg micronized): 1098 ng/mL
Food Effect ([6]; Micronized, fed vs fasted, compiled by literature search): Positive (positive if the ratio of fed > fasted)
Observed AUC(0-inf) Fasted [6, 13]: 8.57 µg·h/mL
Observed Cmax Fasted [6, 13]: 496 ng/mL
Observed AUC(0-inf) Fed [6, 14]: 24.1 µg·h/mL
Observed Cmax Fed [6, 14]: 1100 ng/mL
Food Effect ([6]; Nanonized, fed vs fasted, compiled by literature search): None (none if no significant change in AUC and Cmax with food)
increase in AUC with food [6, 15]: 2.8 fold
increase in Cmax with food [6, 15]: 2.2 fold

Compound: CC(C)(C)c1cc(C(C)(C)C)c(NC(=O)c2c[nH]c3ccccc3c2=O)cc1O [Ivacaftor]
Apparent permeability (Caco-2) [7, 16]: 11.9 (Caco-2)^^ × 10^−6 cm/s
BCS [1]: II/IV
Solubility at pH 6.5 [2]: 0.5^^ μg/ml
FaSSIF solubility [3]: 53^^ μg/ml
FeSSIF solubility [3]: 550^^ μg/ml
pKa ([5]; pKa (a, acidic)): 9.4
AUC Ratio of Ratios (Sim'd / Obs'd) ([8]; Model 1): 1.03
Cmax Ratio of Ratios (Sim'd / Obs'd) ([8]; Model 1): 1.15
Observed AUC(0-inf) Fasted [6, 17]: 3.12 µg·h/mL
Observed Cmax Fasted [6, 17]: 148 ng/mL
Observed AUC(0-inf) Fed [6, 18]: 9.59 µg·h/mL
Observed Cmax Fed [6, 18]: 637 ng/mL
Observed AUC Ratios (Fed/Fasted) [6, 19]: 3.07
Observed Cmax Ratios (Fed/Fasted) [6, 19]: 4.30
Food Effect [6, 20]: Positive (positive if the ratio of fed > fasted)
Food Effect [6, 21]: Positive (positive if the ratio of fed > fasted)

Compound: CCc1nn(CCCN2CCN(c3cccc(Cl)c3)CC2)c(=O)n1CCOc1ccccc1 [Nefazodone HCl]
Apparent permeability (Caco-2) [7, 16]: 11 (Caco-2) ^^ × 10^−6 cm/s
solubility [9, 22]: 1390 µg/mL
solubility [9, 23]: 3100 µg/mL
Effective permeability ([4]; human, 1 h): 220 ×10⁻⁶ cm/s
pKa (b, basic) [5]: 6.50b
AUC Ratio of Ratios (Sim'd / Obs'd) ([8]; Model 1): 0.97
Cmax Ratio of Ratios (Sim'd / Obs'd) ([8]; Model 1): 0.84
AUC Ratio of Ratios (Sim'd / Obs'd) ([8]; Model 2): 1.47
Cmax Ratio of Ratios (Sim'd / Obs'd) ([8]; Model 2): 1.05
solubility [10]: 5380 µg/mL
Observed AUC(0-inf) Fasted [6, 17]: 1.54 µg·h/mL
Observed Cmax Fasted [6, 17]: 301 ng/mL
Observed AUC(0-inf) Fed [6, 18]: 1.24 µg·h/mL
Observed Cmax Fed [6, 18]: 295 ng/mL
Observed AUC Ratios (Fed/Fasted) [6, 19]: 0.80
Observed Cmax Ratios (Fed/Fasted) [6, 19]: 0.98
Observed AUC(0-inf) Fasted [6, 13]: 1.54 µg·h/mL
Observed Cmax Fasted [6, 13]: 301 ng/mL
Observed AUC(0-inf) Fed [6, 14]: 1.24 µg·h/mL
Observed Cmax Fed [6, 14]: 295 ng/mL
Observed AUC Ratios (Fed/Fasted) [6, 24]: 0.80
Observed Cmax Ratios (Fed/Fasted) [6, 24]: 0.98
Food Effect [6, 21]: Negative (negative if ratio fasted > fed)
food effect (FE) direction ([6]; ref drug label): negative FE

Compound: CCC[C@H](NC(=O)[C@@H]1[C@H]2CCC[C@H]2CN1C(=O)[C@@H](NC(=O)[C@@H](NC(=O)c1cnccn1)C1CCCCC1)C(C)(C)C)C(=O)C(=O)NC1CC1 [Telaprevir]
solubility [11]: 85 µg/mL (≈ 125 µM)
Apparent permeability (Caco-2) ([7]; Caco-2): 4.4 (Caco-2)^^ × 10^−6 cm/s
solubility ([12]; FaSSIF solubility): 120 µg/mL (≈ 177 µM)
solubility ([12]; FeSSIF solubility): 80 µg/mL (≈ 118 µM)
Effective permeability ([4]; human, 1 h): 140 ×10⁻⁶ cm/s
AUC Ratio of Ratios (Sim'd / Obs'd) ([8]; Model 1): 0.42
Cmax Ratio of Ratios (Sim'd / Obs'd) ([8]; Model 1): 0.26
AUC Ratio of Ratios (Sim'd / Obs'd) ([8]; Model 2): 0.66
Cmax Ratio of Ratios (Sim'd / Obs'd) ([8]; Model 2): 0.44
Food Effect (graded symbols) ([6]; human, in vivo): +++
Observed AUC Ratios (Fed/Fasted) ([6]; human, in vivo): 3.71
Observed AUC(0-inf) Fasted ([6]; human, in vivo): 3.58 µg·h/mL
Observed AUC(0-inf) Fed ([6]; human, in vivo): 13.3 µg·h/mL
Observed Cmax Fasted ([6]; human, in vivo): 349 ng/mL
Observed Cmax Fed ([6]; human, in vivo): 2080 ng/mL
Observed Cmax Ratios (Fed/Fasted) ([6]; human, in vivo): 5.96

The next lines start with results.

BCS [1]: II/IV
Effective permeability ([4]; human, 1 h): 70 ×10⁻⁶ cm/s
pKa ([5]; pKa (b, basic)): 6
AUC Ratio of Ratios (Sim'd / Obs'd) ([8]; Model 2): 0.58
Cmax Ratio of Ratios (Sim'd / Obs'd) ([8]; Model 2): 0.66
Compound: Cc1c(O)cccc1C(=O)N[C@@H](CSc1ccccc1)[C@H](O)CN1C[C@H]2CCCC[C@H]2C[C@H]1C(=O)NC(C)(C)C [Nelfinavir mesylate]
Solubility at pH 6.5 [2]: 41.4^^ μg/ml
FaSSIF solubility [3]: 22^^ μg/ml
FeSSIF solubility [3]: 243^^ μg/ml
Observed AUC(0-inf) Fasted [6, 13]: 7.08 µg·h/mL
Observed Cmax Fasted [6, 13]: 895 ng/mL
Observed AUC(0-inf) Fed [6, 14]: 35.8 µg·h/mL
Observed Cmax Fed [6, 14]: 3910 ng/mL
Observed AUC Ratios (Fed/Fasted) [6, 24]: 5.06
Observed Cmax Ratios (Fed/Fasted) [6, 24]: 4.37
Food Effect [6, 20]: Positive (positive if the ratio of fed > fasted)
Food Effect [6, 21]: Positive (positive if the ratio of fed > fasted)
food effect (FE) direction ([6]; ref drug label): positive FE

BCS [1]: II/IV
solubility [9, 22]: 1.2 µg/mL (≈ 2.74 µM)
solubility [9, 23]: 2.8 µg/mL (≈ 6.4 µM)
AUC Ratio of Ratios (Sim'd / Obs'd) ([8]; Model 1): 0.13
Cmax Ratio of Ratios (Sim'd / Obs'd) ([8]; Model 1): 0.12
AUC Ratio of Ratios (Sim'd / Obs'd) ([8]; Model 2): 0.24
Cmax Ratio of Ratios (Sim'd / Obs'd) ([8]; Model 2): 0.44
solubility [10]: 0.5 µg/mL (≈ 1.14 µM)
Compound: Cc1ccc(Nc2nccc(N(C)c3ccc4c(C)n(C)nc4c3)n2)cc1S(N)(=O)=O [Pazopanib]
Apparent permeability (Caco-2) [7, 16]: 16.9 (Caco-2)^^ × 10^−6 cm/s
fasted bioavailability ([6]; 800 mg dose): ~ 21%
fasted bioavailability, range ([6]; 800 mg dose): 14–39%
increase in AUC0-72h with a high-fat meal ([6]; 800 mg dose): 2.3 fold
increase in Cmax with a high-fat meal ([6]; 800 mg dose): 2.1 fold
increase in AUC0-72h with a high-fat meal ([6]; 800 mg dose, listed as pazopanib): approximately 2.3 fold
Observed AUC(0-inf) Fasted [6, 17]: 824 µg·h/mL
Observed Cmax Fasted [6, 17]: 20700 ng/mL
Observed AUC(0-inf) Fed [6, 18]: 2020 µg·h/mL
Observed Cmax Fed [6, 18]: 45200 ng/mL
Observed AUC Ratios (Fed/Fasted) [6, 19]: 2.45
Observed Cmax Ratios (Fed/Fasted) [6, 19]: 2.19
Observed AUC(0-inf) Fasted [6, 13]: 824 µg·h/mL
Observed Cmax Fasted [6, 13]: 20700 ng/mL
Observed AUC(0-inf) Fed [6, 14]: 2020 µg·h/mL
Observed Cmax Fed [6, 14]: 45200 ng/mL
Observed AUC Ratios (Fed/Fasted) [6, 24]: 2.45
Observed Cmax Ratios (Fed/Fasted) [6, 24]: 2.19
Food Effect [6, 20]: Positive (positive if the ratio of fed > fasted)
Food Effect [6, 21]: Positive (positive if the ratio of fed > fasted)

FaSSIF solubility ([9]; 37°C): 4 µg/mL
FeSSIF solubility ([9]; 37°C): 13 µg/mL
Effective permeability [4]: 230 ×10⁻⁶ cm/s
AUC Ratio of Ratios (Sim'd / Obs'd) ([8]; Model 2): 1.05
Cmax Ratio of Ratios (Sim'd / Obs'd) ([8]; Model 2): 0.88
Solubility at pH 6.5 ([10]; room temperature): 1 μg/ml
Compound: Cl.O=C1Cc2cc(CCN3CCN(c4nsc5ccccc45)CC3)c(Cl)cc2N1 [Ziprasidone HCl]
Apparent permeability (Caco-2) ([7]; Caco-2): 12.3 (Caco-2)^^ × 10^−6 cm/s
Food Effect (graded symbols) ([6]; human, in vivo): ++
Observed AUC Ratios (Fed/Fasted) ([6]; human, in vivo): 2.01
Observed AUC(0-inf) Fasted ([6]; human, in vivo): 0.95 µg·h/mL
Observed AUC(0-inf) Fed ([6]; human, in vivo): 1.91 µg·h/mL
Observed Cmax Fasted ([6]; human, in vivo): 84 ng/mL
Observed Cmax Fed ([6]; human, in vivo): 165 ng/mL
Observed Cmax Ratios (Fed/Fasted) ([6]; human, in vivo): 1.96
